According to US20250115600A1, “COVALENT MODIFIERS OF AKT1 AND USES THEREOF” (Terremoto Biosciences, Inc., priority 2022, published 2025):

Key:
AKT1 WT [1] = target: T1, AKT1 WT (Homo sapiens (Human), UniProt P31749); experiment: Intact mass spectrometry, covalent complex formation and ARQ-092 competition; type: binding; settings: protein 1 μM, compound 1.5 μM, 2 hrs at 37° C., NaBH4 reduction; for covalent complex formation with AKT1 WT protein: absence of competitor; for covalent complex formation with AKT1 WT protein in presence of competitor: with ARQ092 (50 μM)
Experimental: (§1) AKT1 WT or AKT1 E17K (1 μM) was treated with a compound from Table 1 (1.5 μM) for 2 hrs at 37° C., with and without ARQ092 (50 μM) competitor as a specificity control. Reversible imines were captured by reductive amination with 5 mM NaBH4 for 5 min. Reduction reactions were quenched by diluting the sample in equal volume acetonitrile+1% TFA, then analyzed by LCMS.
(§2) FIGS. 1 to 25 provide intact mass spectra for AKT1 WT protein and AKT1 E17K mutant protein after incubation with compounds of the present disclosure and subsequent borohydride reduction. […] Further, FIGS. 1 to 10, 12, and 14 to 25 each provide intact mass spectra following the incubation of an AKT1 protein with a compound of the present disclosure both in the absence of a competitor molecule (i.e., ARQ-092, a molecule known to bind to and inhibit the function of AKT1); and in the presence of a significant stoichiometric excess of a competitor molecule.
Target sequence in this assay (P31749 2-480): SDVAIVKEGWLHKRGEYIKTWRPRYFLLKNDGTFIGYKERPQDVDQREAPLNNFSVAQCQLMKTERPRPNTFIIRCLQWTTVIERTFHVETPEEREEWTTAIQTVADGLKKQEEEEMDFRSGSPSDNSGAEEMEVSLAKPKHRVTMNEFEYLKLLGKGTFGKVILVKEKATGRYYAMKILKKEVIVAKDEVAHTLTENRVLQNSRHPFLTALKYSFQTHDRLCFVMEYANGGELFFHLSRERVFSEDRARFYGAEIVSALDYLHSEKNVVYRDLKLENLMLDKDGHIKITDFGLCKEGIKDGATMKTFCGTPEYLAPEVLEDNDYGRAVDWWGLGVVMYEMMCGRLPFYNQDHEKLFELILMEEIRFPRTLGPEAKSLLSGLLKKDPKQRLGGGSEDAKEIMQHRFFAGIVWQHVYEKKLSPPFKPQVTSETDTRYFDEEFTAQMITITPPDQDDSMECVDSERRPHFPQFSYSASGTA

AKT1 E17K mutant protein = AKT1 E17K mutant protein (Homo sapiens (Human), UniProt P31749, E17K); experiment: as above; type: binding; settings: for covalent complex formation with AKT1 E17K mutant protein / covalent complex formation with AKT1 E17K mutant protein in presence of competitor: protein 1 μM, compound 1.5 μM, 2 hrs at 37° C., NaBH4 reduction; for covalent complex formation with AKT1 E17K mutant protein: absence of competitor; for covalent complex formation with AKT1 E17K mutant protein in presence of competitor: with ARQ092 (50 μM); for selectivity of complex formation, AKT1 E17K versus AKT1 WT: comparison of the spectra without competitor
Sequence of AKT1 E17K mutant protein (P31749 2-480 E17K): as the sequence (P31749 2-480) above, with E16K counted along it
Experimental: as §1, §2

AKT2 = AKT2 (Homo sapiens (Human), UniProt P31751); experiment: Live cell target engagement (NanoBRET) in HEK293 cells; type: cell-based; settings: HEK293, 2 hours at 37° C.
Sequence of AKT2 (P31751 whole entry): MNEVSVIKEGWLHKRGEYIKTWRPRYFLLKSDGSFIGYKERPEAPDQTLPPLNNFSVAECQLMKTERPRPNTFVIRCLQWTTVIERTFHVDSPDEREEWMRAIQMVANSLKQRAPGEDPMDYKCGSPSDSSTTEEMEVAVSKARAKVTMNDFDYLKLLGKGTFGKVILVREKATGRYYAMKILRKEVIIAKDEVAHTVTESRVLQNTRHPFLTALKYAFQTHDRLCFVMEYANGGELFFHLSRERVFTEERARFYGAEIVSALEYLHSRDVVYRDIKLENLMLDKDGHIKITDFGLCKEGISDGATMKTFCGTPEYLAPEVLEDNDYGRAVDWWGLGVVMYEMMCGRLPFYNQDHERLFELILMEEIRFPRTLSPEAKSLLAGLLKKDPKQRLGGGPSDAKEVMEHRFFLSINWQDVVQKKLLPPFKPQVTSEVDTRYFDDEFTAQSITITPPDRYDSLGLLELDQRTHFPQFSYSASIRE

AKT1 WT [2] = target: T1, AKT1 WT; experiment: Dissociation rate by intact protein LCMS after ARQ092 chase; type: binding; settings: compound 1.5 μM, 2 hours at 37° C., then ARQ092 50 μM
Experimental: (§3) AKT1 WT or AKT1 E17K (1 μM) were treated with a compound of Table 1 (1.5 μM) for 2 hours at 37° C., then ARQ092 (50 μM final concentration) was added to prevent aldehyde-containing compound rebinding after initial dissociation. At various timepoints, aliquots were removed and quenched with 5 mM NaBH4 for 5 min to capture the reversible imine through reductive amination. Reduction reactions were quenched by diluting the sample in equal volume acetonitrile+1% TFA, then analyzed by LCMS. Deconvoluted monoisotopic intensities of unmodified vs. compound-modified mass peaks were compared.
Target sequence in this assay (P31749 2-480): as the sequence (P31749 2-480) above

AKT1 E17K [3] = target: T2, AKT1 E17K (Homo sapiens (Human), UniProt P31749, E17K); experiment: as above; type: binding; settings: for AKT1 E17K t1/2: compound 1.5 μM, 2 hours at 37° C., then ARQ092 50 μM; for Off-rate Selectivity E17K/WT: ratio of t1/2
Experimental: as §3
Target sequence in this assay (P31749 2-480 E17K): as the sequence (P31749 2-480) above, with E16K counted along it

AKT1 WT [4] = target: T1, AKT1 WT; experiment: Live cell target engagement (NanoBRET) in HEK293 cells; type: cell-based; settings: HEK293, 2 hours at 37° C.
Target sequence in this assay (P31749 whole entry): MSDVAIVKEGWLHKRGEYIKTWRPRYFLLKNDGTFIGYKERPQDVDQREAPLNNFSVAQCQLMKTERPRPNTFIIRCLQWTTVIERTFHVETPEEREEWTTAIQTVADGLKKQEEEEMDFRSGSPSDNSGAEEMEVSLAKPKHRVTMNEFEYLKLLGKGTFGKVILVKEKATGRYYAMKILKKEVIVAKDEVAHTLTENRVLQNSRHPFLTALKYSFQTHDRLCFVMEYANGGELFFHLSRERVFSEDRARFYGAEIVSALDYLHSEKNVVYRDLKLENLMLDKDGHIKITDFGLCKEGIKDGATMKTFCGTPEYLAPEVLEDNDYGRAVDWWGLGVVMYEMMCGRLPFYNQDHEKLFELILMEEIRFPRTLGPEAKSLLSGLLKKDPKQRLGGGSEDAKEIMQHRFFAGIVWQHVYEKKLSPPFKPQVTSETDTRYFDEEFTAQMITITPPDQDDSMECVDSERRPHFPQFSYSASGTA

AKT1 E17K [5] = target: T2, AKT1 E17K; experiment: as above; type: cell-based; settings: for IC50: HEK293, 2 hours at 37° C.
Target sequence in this assay (P31749 whole entry E17K): as the sequence (P31749 whole entry) above, with E17K counted along it

Row | Compound | covalent complex formation with AKT1 WT protein (AKT1 WT [1]) | IC50 (AKT2) | AKT1 (WT) t1/2 (AKT1 WT [2]) | AKT1 E17K t1/2 (AKT1 E17K [3]) | Off-rate Selectivity E17K/WT (AKT1 E17K [3]) | IC50 (AKT1 WT [4]) | AKT1 E17K IC50: Selectivity vs AKT1 WT (AKT1 E17K [5]) | AKT1 E17K IC50: Selectivity vs AKT2 (AKT1 E17K [5]) | IC50 (AKT1 E17K [5]) | covalent complex formation with AKT1 WT protein in presence of competitor (AKT1 WT [1]) | covalent complex formation with AKT1 E17K mutant protein (AKT1 E17K mutant protein) | covalent complex formation with AKT1 E17K mutant protein in presence of competitor (AKT1 E17K mutant protein) | selectivity of complex formation, AKT1 E17K versus AKT1 WT (AKT1 E17K mutant protein)
1 | Nc1ncccc1-c1nc2cccnc2n1-c1ccc(CNC(=O)C(F)c2ccc(C=O)c(O)c2)cc1 (stereo not drawn) [Compound 74, N-({4-[2-(2-aminopyridin-3-yl)imidazo[4,5-b]pyridin-3-yl]phenyl}methyl)-2-fluoro-2-(4-formyl-3-hydroxyphenyl)acetamide] | significant presence of covalent complex | > 500 nM | 12 min | 73.2 min | 6.1 | < 100 nM | 5.5 | 130 | < 100 nM | Essentially no covalent complex formation | significant presence of a covalent complex | Essentially little to no covalent complex formation | –
2 | Nc1ncccc1-c1nc2cccnc2n1-c1ccc(CNC(=O)Cc2ccc(C=O)c(O)c2)cc1 [Compound 96, N-(4-(2-(2-aminopyridin-3-yl)-3H-imidazo[4,5-b]pyridin-3-yl)benzyl)-2-(4-formyl-3-hydroxyphenyl)acetamide] | significant presence of covalent complex | > 500 nM | 10.7 min | 55.5 min | 5.2 | < 100 nM | 4.6 | 64 | < 100 nM | Essentially no covalent complex formation | significant presence of a covalent complex | Essentially little to no covalent complex formation | –
3 | Nc1ncccc1-c1nc2ccc(-c3ccccc3)nc2n1-c1ccc(CNCCc2ccc(C=O)cc2)cc1 [Compound 125, 4-(2-((4-(2-(2-aminopyridin-3-yl)-5-phenyl-3H-imidazo[4,5-b]pyridin-3-yl)benzyl)amino)ethyl)benzaldehyde] | only peaks corresponding to unmodified WT protein | 100 to 500 nM | 45.3 min | 176 min | 3.9 | 100 to 500 nM | 0.28 | 0.39 | 100 to 500 nM | only peaks corresponding to unmodified WT protein | presence of covalent complex | Essentially no covalent complex formation | –
4 | Nc1ncccc1-c1nc2ccc(-c3ccccc3)nc2n1-c1ccc(CNCCc2ccc(C=O)c(O)c2)cc1 [Compound 133, 4-(2-((4-(2-(2-aminopyridin-3-yl)-5-phenyl-3H-imidazo[4,5-b]pyridin-3-yl)benzyl)amino)ethyl)-2-hydroxybenzaldehyde] | a noticeable level of covalent complex was formed | 100 to 500 nM | 22.7 min | 126 min | 5.6 | < 100 nM | 1.4 | 4.7 | < 100 nM | essentially no covalent complex formation | a covalent complex between Compound 133 and AKT1 E17K mutant protein was observed | essentially no covalent complex formation | –
5 | Nc1ncccc1-c1nc2ccc(-c3cccc(N4CCOCC4)c3)nc2n1-c1ccc(CNC(=O)Cc2ccc(C=O)c(O)c2F)cc1 [Example 21, N-({4-[2-(2-aminopyridin-3-yl)-5-[3-(morpholin-4-yl)phenyl]imidazo[4,5-b]pyridin-3-yl]phenyl}methyl)-2-(2-fluoro-4-formyl-3-hydroxyphenyl)acetamide] | significant presence of a covalent complex | < 100 nM | 45.3 min | 68.2 min | 1.5 | < 100 nM | 1.5 | 4.8 | < 100 nM | Essentially no covalent complex formation | significant presence of a covalent complex | Essentially no covalent complex formation | –

The next lines start with results.

Row | covalent complex formation with AKT1 WT protein (AKT1 WT [1]) | IC50 (AKT2) | AKT1 (WT) t1/2 (AKT1 WT [2]) | AKT1 E17K t1/2 (AKT1 E17K [3]) | Off-rate Selectivity E17K/WT (AKT1 E17K [3]) | IC50 (AKT1 WT [4]) | AKT1 E17K IC50: Selectivity vs AKT1 WT (AKT1 E17K [5]) | AKT1 E17K IC50: Selectivity vs AKT2 (AKT1 E17K [5]) | IC50 (AKT1 E17K [5]) | Compound | covalent complex formation with AKT1 WT protein in presence of competitor (AKT1 WT [1]) | covalent complex formation with AKT1 E17K mutant protein (AKT1 E17K mutant protein) | covalent complex formation with AKT1 E17K mutant protein in presence of competitor (AKT1 E17K mutant protein) | selectivity of complex formation, AKT1 E17K versus AKT1 WT (AKT1 E17K mutant protein)
6 | presence of a covalent complex | < 100 nM | 85.9 min | 151 min | 1.8 | < 100 nM | 1.4 | 5.8 | < 100 nM | Nc1ncccc1-c1nc2ccc(-c3ccccc3)nc2n1-c1ccc(C2(NC(=O)Cc3ccc(C=O)c(O)c3F)CC2)cc1 [Compound 31, N-(1-{4-[2-(2-aminopyridin-3-yl)-5-phenylimidazo[4,5-b]pyridin-3-yl]phenyl}cyclopropyl)-2-(2-fluoro-4-formyl-3-hydroxyphenyl)acetamide] | Essentially little to no covalent complex formation | significant presence of a covalent complex | Essentially little to no covalent complex formation | –
7 | small level of a covalent complex | 100 to 500 nM | 25 min | 94.2 min | 3.8 | < 100 nM | 2.1 | 22 | < 100 nM | Nc1ncccc1-c1nc2ccc(-c3ccccc3)nc2n1-c1ccc(CNC(=O)c2ccc(O)c(C=O)c2)cc1 [Compound 73, N-(4-(2-(2-aminopyridin-3-yl)-5-phenyl-3H-imidazo[4,5-b]pyridin-3-yl)benzyl)-3-formyl-4-hydroxybenzamide] | – | presence of a covalent complex | – | selective for complex formation with AKT1 E17K
8 | presence of a covalent complex | 100 to 500 nM | 24.2 min | 111 min | 4.6 | < 100 nM | 2.5 | 22 | < 100 nM | Nc1ncccc1-c1nc2ccc(-c3ccccc3)nc2n1-c1ccc(CNC(=O)Cc2ccc(C=O)c(O)c2F)cc1 [Compound 94, N-({4-[2-(2-aminopyridin-3-yl)-5-phenylimidazo[4,5-b]pyridin-3-yl]phenyl}methyl)-2-(2-fluoro-4-formyl-3-hydroxyphenyl)acetamide] | Essentially no covalent complex formation | presence of a covalent complex | Essentially no covalent complex formation | –
9 | small presence of covalent complex | < 100 nM | 4.9 min | 43.2 min | 8.8 | < 100 nM | 1.2 | 5.3 | < 100 nM | CC(=O)Nc1cc(CCNCc2ccc(-n3c(-c4cccnc4N)nc4ccc(-c5ccccc5)nc43)cc2)ccc1C=O [Compound 110, N-(5-(2-((4-(2-(2-aminopyridin-3-yl)-5-phenyl-3H-imidazo[4,5-b]pyridin-3-yl)benzyl)amino)ethyl)-2-formylphenyl)acetamide] | Essentially no covalent complex formation | significant presence of a covalent complex | Essentially little to no covalent complex formation | selective for complex formation with AKT1 E17K
